In US20230131943A1, “ANTI-INFECTIVE AND ANTI-VIRAL COMPOUNDS AND COMPOSITIONS” (priority 2020, published 2023):

What was measured:
[1] = test system: Staphylococcus aureus Newman; experiment: Infection of mice by Staphylococcus aureus Newman (body weight, CFU from kidney); type: in vivo; conditions: FIG. 6; mice infected with Staphylococcus aureus Newman
SARS-CoV-2 = SARS-CoV-2 virus production in infected CaCo2 cells (fluorescence or luminescence normalized to Hoechst); conditions: for Fluorescence ratio: added substances at the fixed concentration indicated, CaCo2 cells, untreated = 0.2; for SARS-CoV-2 viral protein production in CaCo2 cells - effect of each substance at 10 μM (% of untreated): 10 μM in medium, low values indicate inhibition of viral protein production
Staphylococcus carnosus = experiment: Inhibition of growth of Staphylococcus carnosus (optical density of culture); type: cell-based; conditions: after 9-20 h, no compound 0.887
Protocol: (§1) Activity of substances in the inhibition of growth of bacteria. Bacteria including the species Escherichia coli, Bacillus pumilus, Salmonella sp., Micrococcus luteus and Staphylococcus carnosus are cultured in appropriate media (Luria broth for all except S. canosus). Overnight cultures are mixed with fresh medium to reach an optical density at […] of ca. 0.1 AU. These cultures are mixed with solutions of substances to be tested at concentrations ranging from 100 μM to 0.05 μM in a microtitre plate. The growth of the culture is monitored by measuring the optical density at various times after the addition of the inhibitor. Reduction in the rate of increase in optical density corresponds to an inhibition of bacterial growth. In the following tables, the activity of various of the test substances may be observed by reductions in optical density relative to untreated control cultures.

Salmonella typhimurium = experiment: Inhibition of growth of Salmonella typhimurium (optical density of culture); type: cell-based; conditions: after 9-20 h, no compound 0.943
Protocol: as §1

[2] = Dextran sulfate colitis model of inflammatory bowel disease in mice; type: in vivo, mouse; conditions: FIG. 18; all doses 1.34 μmol/kg; N=8
From the text: The potential efficacy of a Compound for Inflammatory bowel disease may be modeled as follows. C57 BLK6 or BALBc mice are provided with drinking water containing 2.5% or 2.8% dextran sulfate. Animals are weighed and observed for signs of intestinal disturbance daily. Signs include diarrhea or occult blood. Compound is formulated by mixing with a solution of 0.1 up to 1% citric acid depending on concentration. Compound is provided by oral gavage daily.

CC[C@H]1OC(=O)[C@H](C)[C@@H](O[C@H]2C[C@@](C)(OC)[C@@H](O)[C@H](C)O2)[C@H](C)[C@@H](O[C@@H]2O[C@H](C)C[C@H](N(C)C)[C@H]2O)[C@](C)(O)C[C@@H](C)CN(C)[C@H](C)[C@@H](O)[C@]1(C)O [Azithromycin, reference compound]
Bacteria quantified as CFU recovered from a standard sample of kidney [1]: decreases recovered bacteria in a dose responsive manner

CN(C)C(=O)COC(=O)Cc1ccc(OC(=O)c2ccc(NC(=N)N)cc2)cc1 [Camostat, reference compound]
Fluorescence ratio (SARS-CoV-2; 0.312 μM of the (first named) compound): 0.09
Fluorescence ratio (SARS-CoV-2; 0.625 μM of the (first named) compound): 0.08
Fluorescence ratio (SARS-CoV-2; 1.25 μM of the (first named) compound): 0.01
Fluorescence ratio (SARS-CoV-2; 2.5 μM of the (first named) compound): 0.03
Fluorescence ratio (SARS-CoV-2; 5 μM of the (first named) compound): 0.07
SARS-CoV-2 viral protein production in CaCo2 cells - effect of each substance at 10 μM (% of untreated) (SARS-CoV-2): 2 % of untreated
Fluorescence ratio (SARS-CoV-2; 10 μM of the (first named) compound): 0.02

CC[C@H]1OC(=O)[C@H](C)[C@@H](O[C@@H]2O[C@@H](C)[C@@H](OC(C)=O)[C@@H](OC(C)=O)[C@@H]2OC(C)=O)[C@H](C)[C@@H](O[C@@H]2O[C@H](C)C[C@H](N(C)C)[C@H]2O)[C@](C)(O)C[C@@H](C)CN(C)[C@H](C)[C@@H](O)[C@]1(C)O [Compound A-23, 3-descladinosyl-3-triacetylfucosylazithromycin]
SARS-CoV-2 viral protein production in CaCo2 cells - effect of each substance at 10 μM (% of untreated) (SARS-CoV-2): 44 % of untreated

CCCN(CCO)CC(O)CN(C)[C@H]1C[C@@H](C)O[C@@H](O[C@@H]2[C@@H](C)[C@H](O[C@H]3C[C@@](C)(OC)[C@@H](O)[C@H](C)O3)[C@@H](C)C(=O)O[C@H](CC)[C@@](C)(O)[C@H](O)[C@@H](C)N(C)C[C@H](C)C[C@@]2(C)O)[C@@H]1O (stereo partly drawn) [Compound A-24, (2R,3S,4R,5R,8R,10R,11R,12S,13S, 14R)-2-ethyl-3,4,10-trihydroxy-11-(((2S,3R,4R,6R)-3-hydroxy-4-((2-hydroxy-3-((2-hydroxyethyl)(propyl)amino)propyl) (methyl)amino)-6-methyltetrahydro-2H-pyran-2-yl)oxy)-13-(((2R,4R,58,6S)-5-hydroxy-4-methoxy-4,6-dimethyltetrahydro-2H-pyran-2-yl)oxy)-3,5,6,8,10,12,14-heptamethyl-1-oxa-6-azacyclopentadecan-15-one]
SARS-CoV-2 viral protein production in CaCo2 cells - effect of each substance at 10 μM (% of untreated) (SARS-CoV-2): 35 % of untreated

CC[C@H]1OC(=O)[C@H](C)[C@@H](O)[C@H](C)[C@@H](O[C@@H]2O[C@H](C)C[C@H](NC)[C@H]2O)[C@](C)(O)C[C@@H](C)CN(C)[C@H](C)[C@@H](O)[C@]1(C)O [Compound A-25, (2R,3S,4R,5R,8R,10R,11R,12S,13S, 14R)-2-ethyl-3,4,10,13-tetrahydroxy-11-(((2S,3R,4S,6R)-3-hydroxy-6-methyl-4-(methylamino)tetrahydro-2H-pyran-2-yl)oxy)-3,5,6,8,10,12,14-heptamethyl-1-oxa-6-azacyclopentadecan-15-one]
SARS-CoV-2 viral protein production in CaCo2 cells - effect of each substance at 10 μM (% of untreated) (SARS-CoV-2): 34 % of untreated

CC[C@H]1OC(=O)[C@H](C)[C@@H](O[C@H]2C[C@@](C)(OC)[C@@H](O[N+](=O)[O-])[C@H](C)O2)[C@H](C)[C@@H](O[C@@H]2O[C@H](C)C[C@H](N(C)C)[C@H]2O)[C@](C)(O)C[C@@H](C)CN(C)[C@H](C)[C@@H](O)[C@]1(C)O [Compound E-1, (2S,3S,4R,6R)-6-(((2R,3S,4R,5R,8R,10R,11R,12S,13S, 14R)-11-(((2S,3R,4S,6R)-4-(dimethylamino)-3-hydroxy-6-methyltetrahydro-2H-pyran-2-yl)oxy)-2-ethyl-3,4,10-trihydroxy-3,5,6,8,10,12,14-heptamethyl-15-oxo-1-oxa-6-azacyclopentadecan-13-yl)oxy)-4-methoxy-2,4-dimethyltetrahydro-2H-pyran-3-yl nitrate]
Absorbance of culture medium at 600 nm (Staphylococcus carnosus; 0.8 μM): 0.902
Absorbance of culture medium at 600 nm (Staphylococcus carnosus; 2 μM): 0.856
Absorbance of culture medium at 600 nm (Staphylococcus carnosus; 3 μM): 0.864
Absorbance of culture medium at 600 nm (Staphylococcus carnosus; 6 μM): 0.625
Absorbance of culture medium at 600 nm (Staphylococcus carnosus; 13 μM): 0.068
Absorbance of culture medium at 600 nm (Staphylococcus carnosus; 25 μM): 0.078
Absorbance of culture medium at 600 nm (Staphylococcus carnosus; 50 μM): 0.096
Absorbance of culture medium at 600 nm (Staphylococcus carnosus; 100 μM): 0.157
Absorbance of culture medium at 600 nm (Salmonella typhimurium; 0.8 μM): 0.722
Absorbance of culture medium at 600 nm (Salmonella typhimurium; 2 μM): 0.761
Absorbance of culture medium at 600 nm (Salmonella typhimurium; 3 μM): 0.711
Absorbance of culture medium at 600 nm (Salmonella typhimurium; 6 μM): 0.741
Absorbance of culture medium at 600 nm (Salmonella typhimurium; 13 μM): 0.722
Absorbance of culture medium at 600 nm (Salmonella typhimurium; 25 μM): 0.736
Absorbance of culture medium at 600 nm (Salmonella typhimurium; 50 μM): 0.484
Absorbance of culture medium at 600 nm (Salmonella typhimurium; 100 μM): 0.557

CCCCCCCCCCN(C)C1C[C@@H](C)O[C@@H](O[C@@H]2[C@@H](C)[C@H](O[C@H]3C[C@@](C)(OC)[C@@H](O[N+](=O)[O-])[C@H](C)O3)[C@@H](C)C(=O)O[C@H](CC)[C@@](C)(O)[C@H](O)[C@@H](C)N(C)C[C@H](C)C[C@@]2(C)O)[C@@H]1O (stereo partly drawn) [Compound E-3]
Body weight and clinical score of BALBc mice at day 9 after commencing 2.5% DSS in water [2]: stimulate inflammation

CC[C@H]1OC(=O)[C@H](C)[C@@H](O[C@H]2C[C@@](C)(OC)[C@@H](O)[C@H](C)O2)[C@H](C)[C@@H](O[C@@H]2O[C@H](C)CC(N(C)C)[C@H]2O)[C@](C)(O)C[C@@H](C)CN(C)[C@H](C)[C@@H](O[N+](=O)[O-])[C@]1(C)O (stereo partly drawn) [Compound E-10]
Absorbance of culture medium at 600 nm (Staphylococcus carnosus; 0.8 μM): 0.862
Absorbance of culture medium at 600 nm (Staphylococcus carnosus; 2 μM): 0.826
Absorbance of culture medium at 600 nm (Staphylococcus carnosus; 3 μM): 0.768
Absorbance of culture medium at 600 nm (Staphylococcus carnosus; 6 μM): 0.699
Absorbance of culture medium at 600 nm (Staphylococcus carnosus; 13 μM): 0.702
Absorbance of culture medium at 600 nm (Staphylococcus carnosus; 25 μM): 0.595
Absorbance of culture medium at 600 nm (Staphylococcus carnosus; 50 μM): 0.433
Absorbance of culture medium at 600 nm (Staphylococcus carnosus; 100 μM): 0.576
Absorbance of culture medium at 600 nm (Salmonella typhimurium; 0.8 μM): 0.334
Absorbance of culture medium at 600 nm (Salmonella typhimurium; 2 μM): 0.361
Absorbance of culture medium at 600 nm (Salmonella typhimurium; 3 μM): 0.402
Absorbance of culture medium at 600 nm (Salmonella typhimurium; 6 μM): 0.382
Absorbance of culture medium at 600 nm (Salmonella typhimurium; 13 μM): 0.399
Absorbance of culture medium at 600 nm (Salmonella typhimurium; 25 μM): 0.390
Absorbance of culture medium at 600 nm (Salmonella typhimurium; 50 μM): 0.315
Absorbance of culture medium at 600 nm (Salmonella typhimurium; 100 μM): 0.280

CC[C@H]1OC(=O)[C@H](C)[C@@H](O[C@H]2C[C@@](C)(OC)[C@@H](O)[C@H](C)O2)[C@H](C)[C@@H](O[C@@H]2O[C@H](C)CC(N(C)C)[C@H]2O[N+](=O)[O-])[C@](C)(O)C[C@@H](C)CN(C)[C@H](C)[C@@H](OC)[C@]1(C)O (stereo partly drawn) [Compound E-11]
Absorbance of culture medium at 600 nm (Staphylococcus carnosus; 0.8 μM): 0.941
Absorbance of culture medium at 600 nm (Staphylococcus carnosus; 2 μM): 0.918
Absorbance of culture medium at 600 nm (Staphylococcus carnosus; 3 μM): 0.890
Absorbance of culture medium at 600 nm (Staphylococcus carnosus; 6 μM): 0.887
Absorbance of culture medium at 600 nm (Staphylococcus carnosus; 13 μM): 0.822
Absorbance of culture medium at 600 nm (Staphylococcus carnosus; 25 μM): 0.819
Absorbance of culture medium at 600 nm (Staphylococcus carnosus; 50 μM): 0.574
Absorbance of culture medium at 600 nm (Staphylococcus carnosus; 100 μM): 0.641
Absorbance of culture medium at 600 nm (Salmonella typhimurium; 0.8 μM): 0.555
Absorbance of culture medium at 600 nm (Salmonella typhimurium; 2 μM): 0.587
Absorbance of culture medium at 600 nm (Salmonella typhimurium; 3 μM): 0.623
Absorbance of culture medium at 600 nm (Salmonella typhimurium; 6 μM): 0.627
Absorbance of culture medium at 600 nm (Salmonella typhimurium; 13 μM): 0.633
Absorbance of culture medium at 600 nm (Salmonella typhimurium; 25 μM): 0.697
Absorbance of culture medium at 600 nm (Salmonella typhimurium; 50 μM): 0.650
Absorbance of culture medium at 600 nm (Salmonella typhimurium; 100 μM): 0.562
SARS-CoV-2 viral protein production in CaCo2 cells - effect of each substance at 10 μM (% of untreated) (SARS-CoV-2): 32 % of untreated

CCC(=O)O[C@@H]1[C@@H](C)N(C)C[C@H](C)C[C@@](C)(O)[C@H](O[C@@H]2O[C@H](C)CC(N(C)C)[C@H]2O)[C@@H](C)[C@H](O[C@H]2C[C@@](C)(OC)[C@@H](O)[C@H](C)O2)[C@@H](C)C(=O)O[C@H](CC)[C@@]1(C)O (stereo partly drawn) [Compound E-18]
SARS-CoV-2 viral protein production in CaCo2 cells - effect of each substance at 10 μM (% of untreated) (SARS-CoV-2): 49 % of untreated

CCCC(=O)O[C@@H]1C(N(C)C)C[C@@H](C)O[C@H]1O[C@@H]1[C@@H](C)[C@H](O[C@H]2C[C@@](C)(OC)[C@@H](O)[C@H](C)O2)[C@@H](C)C(=O)O[C@H](CC)[C@@](C)(O)[C@H](O)[C@@H](C)N(C)C[C@H](C)C[C@@]1(C)O (stereo partly drawn) [Compound E-19]
SARS-CoV-2 viral protein production in CaCo2 cells - effect of each substance at 10 μM (% of untreated) (SARS-CoV-2): 34 % of untreated
